Measurements: publication PMC8642539, “The novel BET inhibitor UM-002 reduces glioblastoma cell proliferation and invasion” (Scientific Reports, 2021)
pEC50: −log10 of the molar value. Where two headings read alike, the source gives them in different places.

Key:
GBM22 cells [1] = test: Cerebral brain organoid-GBM co-culture, proliferation and invasion; type: cell-based, human; conditions: 9 days co-culture; JQ1 500 nM, MK-8628 1000 nM, UM-002 100 nM
Text: On day 0 of organoid production, induced pluripotent stem cells (iPSCs), at ~ 80% confluence, were dissociated into small clumps with gentle cell dissociation reagent (StemCell Technologies, 07174) and plated into round-bottom, low-attachment 96 well plates (ThermoFisher, 174925; ~ 15,000 cells per well). Initial media, consisting of mTeSR Plus (Stem Cell Technologies, 05825) supplemented with 5 µm A-83 (Peprotech, 9094360) and 5 µm Dorsomorphin (Peprotech, 8666430), was replaced every other day starting at day 2 by removing half of the media in each well (100 µL) and replacing with fresh media three times. On day 8, media was changed to a base media of Neurobasal A media (Gibco, 10888022) with NeuroCult SM1 (StemCell Technologies, 05711), glutamax (Gibco, 35050061), and Pen/strep (Gibco, 15140122) supplemented with EGF (20 ng/ml; Alomone Labs, E-100) and FGF2 (20 ng/ml; Alomone Labs, F-170). Media was similarly exchanged every other day until day 20 when the mitogenic supplements were exchanged for differentiating factors: BDNF (20 ng/ml; Alomone Labs, B-250) and NT3 (20 ng/ml; Alomone Labs, N-260) in the same base media. After two weeks in differentiation media, organoids could be maintained in the base media for > 100 days[41]. […]

GBM39 cells = test: In vitro dose response, CellTiter-Glo ATP, GBM39; type: cell-based; conditions: Homo sapiens
Method: (§1) Figure 1 UM-002 reduces GBM cell proliferation in vitro. (A) Structure of UM-002. […] Reduction in ATP levels was measured using CellTiter-Glo after 72 h of compound treatment and luminescence was normalized to the positive control. Dose response curves were calculated using a variable slope (4 parameters) fit. EC50 and the percentage of positive control at EC50 was calculated for each compound.
(§2) The patient derived xenograft (PDX) glioblastoma cell lines, GBM22 and GBM39, were obtained from the Mayo Clinic Brain Tumor PDX national resource. Cells were cultured as previously described[39],[40]. Since genetic drift is known to occur with passage in vivo and in vitro, a stock of early passage tumor tissue is maintained in storage and xenograft lines are passaged a maximum of 20 times before restoration from early passage tissue. […]
(§3) PDX cells were plated at 3000 cells/well in a 384 well flat bottom plate, and adherent cultures were established overnight. […] Following a 72-h incubation, CellTiter-Glo (Promega, Wisconsin, USA) was used to measure ATP content and luminescence was read on an EnVision plate reader, as previously described. Luminescence was normalized to 10 µM Velcade as a positive control, and 0.1% DMSO as a negative control. Dose response curves were calculated in GraphPad PRISM (version 8.4.3) using a variable slope (four parameter) fit.

cerebral brain organoids = test: Brain organoid viability (organoid volume and surface area) in co-culture; type: cell-based, human; conditions: 9 days; JQ1 500 nM, MK-8628 1000 nM, UM-002 100 nM
Method: GBM22 cells were dissociated into a single cell suspension with Trypsin (Gibco, 15,400,054) and seeded (17,500 cells/well) into round-bottom, low-attachment 96-well plates containing a single mature organoid per well. Cells were seeded by removing 100 µL of media and replacing with 100 µL of cell suspension. GBM cells were allowed to settle around the organoid and attach overnight. After 24 h (day 1 of co-culturing) organoids were either fixed (see below) and stored in PBS as an untreated control or treated with compounds. For treatment, compounds were dissolved in DMSO and diluted in organoid maintenance media. […] On the first day of treatment, organoids were treated by removing half of the media (100 µL) and replacing with 100 µL of a 2 × compound solution. Compounds were renewed with 1 × solutions in the new media every other day following the normal media replacement regimen until the conclusion of the experiment.
Statistical comparisons performed using an unpaired, two-tailed t test or one-way ANOVA with Tukey HSD post-hoc.

GBM22 cells [2] = test: In vitro dose response, CellTiter-Glo ATP, GBM22; type: cell-based; conditions: Homo sapiens, 72 h
Method: as §1, §2, §3

recurrent GBM = system: recurrent GBM; design: method as in doi:10.1200/JCO.2016.34.15_suppl.e14123; conditions: 12 recurrent GBM patients, study terminated; cited from earlier work
[3] = design: method as in PMID 26392221; conditions: cited from earlier work

SMILES	Number of invading GBM cells relative to DMSO control (GBM22 cells [1])	Total number of GBM cells relative to DMSO control (GBM22 cells [1])	EC50 (GBM39 cells; GBM39, 72 h, read-out: GBM39 logEC50 (converted))	pEC50 (GBM39 cells; GBM39, 72 h, CellTiter-Glo, 4 parameter fit, read-out: GBM39 EC50)	Brain organoid viability, as determined by organoid volume and surface area (cerebral brain organoids)	EC50 (GBM22 cells [2]; read-out: GBM22 logEC50 (converted))	pEC50 (GBM22 cells [2]; CellTiter-Glo, 4 parameter fit, read-out: GBM22 EC50)	Progression-free survival (recurrent GBM)	Phenotype in mice [3]
Cc1sc2c(c1C)C(c1ccc(Cl)cc1)=N[C@@H](CC(=O)Nc1ccc(O)cc1)c1nnc(C)n1-2 [MK-8628]	reduced	reduced	813 nM	6.09	did not negatively impact	1390 nM	5.86	no increase in progression-free survival	–
CC(=O)N1c2ccc(-c3ccc(CN4CCCCC4)cc3)cc2[C@H](Nc2ccccc2)C[C@H]1C [I-BET858]	–	–	–	–	–	–	–	–	autism spectrum disorder phenotype
